Assay results: patent US9133207B2, “Tetrandrine derivatives with substituted 5-carbon, preparation method and use thereof” (Hangzhou Bensheng Pharmaceutical Co., Ltd., priority 2011, dated 2015)
≈ marks a conversion by molar mass, not a printed value. Values belong to the compound of their own block, whether it stands above or below them.

How the values were obtained:
[1] = system: RPMI8226 (multiple myeloma); test: Multiple myeloma cell growth inhibition, MTT, 72 h (Example 6); assay type: cell-based, human; details: Homo sapiens, RPMI-8226; 72 h, MTT, RPMI8226
Outline: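 Viability was read by MTT after 72 h of compound exposure at 37 °C, 5% CO2. Each well held 6000 RPMI8226 cells in 1640 medium containing 10% fetal bovine serum, with derivatives added at various concentrations.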

PC-3 (prostate cancer) = test: Solid tumor cell growth inhibition, MTT, 72 h (Example 7); assay type: cell-based, human; details: Homo sapiens; 72 h, MTT, PC-3
Outline: (§1)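 MTT read-out of viable cells after 72 h compound treatment, reported as percent viability versus untreated control (100%). Cells seeded at 4000 per well, grown 24 h beforehand in 10% FBS DMEM high glucose, 37 °C, 5% CO2.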

[2] = system: PANC-1 (pancreatic cancer); test: as above; assay type: cell-based, human; details: Homo sapiens; 72 h, MTT, PANC-1
Outline: as §1

[3] = system: Hep-2 (laryngeal carcinoma); test: as above; assay type: cell-based, human; details: Homo sapiens; 72 h, MTT, Hep 2
Outline: as §1

MG63 (osteosarcoma) = test: as above; assay type: cell-based, human; details: Homo sapiens; 72 h, MTT, MG-63
Outline: as §1

[4] = system: CaES-17 (esophageal cancer cell); test: as above; assay type: cell-based, human; details: Homo sapiens, CaEs17; 72 h, MTT, CAES-17
Outline: as §1

[5] = system: H9 (acute lymphoblastic leukemia, ALL); test: Leukemia cell growth inhibition, MTT, 72 h (Example 5); assay type: cell-based, human; details: for IC50 / IC90: Homo sapiens, 72 h, MTT
Outline: (§2)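 Viability read by MTT after 72 h of compound treatment at 37 °C under 5% CO2; each well seeded with 6000 cells in 1640 medium plus 10% fetal bovine serum, compounds at several concentrations.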

[6] = system: NB4 (acute promyelocytic leukemia, AML); test: as above; assay type: cell-based, human; details: Homo sapiens; 72 h, MTT
Outline: as §2

[7] = system: Jurkat (acute lymphoblastic leukemia, ALL); test: as above; assay type: cell-based, human; details: for IC50 / IC90: Homo sapiens, Jurkat, 72 h, MTT
Outline: as §2

[8] = system: K562/adr (drug-resistant, chronic myeloid leukemia, CML); test: as above; assay type: cell-based, human; details: Homo sapiens, K562/Adr; 72 h, MTT
Outline: as §2

[9] = system: Kasumi-1 (acute myeloid leukemia M2 type, AML-M2); test: as above; assay type: cell-based, human; details: Homo sapiens, Kasumi 1
Outline: as §2

[10] = system: Hela (human cervical cancer cell); test: Solid tumor cell growth inhibition, MTT, 72 h (Example 7); assay type: cell-based; details: Homo sapiens; 72 h, MTT, Hela
Outline: as §1

[11] = system: CNE (nasopharyngeal carcinoma cell); test: as above; assay type: cell-based; details: Homo sapiens
Outline: as §1

A549 (human lung cancer) = test: as above; assay type: cell-based; details: Homo sapiens; 72 h, MTT, A549
Outline: as §1

[12] = system: RKO (human colon adenocarcinoma cell); test: as above; assay type: cell-based; details: for IC50 / IC90: Homo sapiens, 72 h, MTT, RKO
Outline: as §1

[13] = system: MGC 803 (human gastric cancer cell); test: as above; assay type: cell-based; details: Homo sapiens
Outline: as §1

[14] = system: SK-OV-3 (ovarian cancer cell); test: as above; assay type: cell-based; details: Homo sapiens
Outline: as §1

[15] = system: U87 MG (malignant glioma cell); test: as above; assay type: cell-based; details: Homo sapiens, U-87 MG
Outline: as §1

[16] = system: Huh7 (human liver cancer cell); test: as above; assay type: cell-based; details: Homo sapiens; 72 h, MTT, Huh-7
Outline: as §1

[17] = system: Becap37 (human breast cancer cell); test: as above; assay type: cell-based; details: Homo sapiens; 72 h, MTT, Becap-37
Outline: as §1

IC50 [1]: 0.05 µg/mL (≈ 0.068 µM) | IC90 [1]: 1.5 µg/mL (≈ 2.04 µM) | IC50 (PC-3 (prostate cancer)): 1.85 µg/mL (≈ 2.52 µM) | IC90 (PC-3 (prostate cancer)): 2.5 µg/mL (≈ 3.4 µM) | IC50 [2]: 1.88 µg/mL (≈ 2.56 µM) | IC90 [2]: 9.54 µg/mL (≈ 13 µM) | IC50 [3]: 2.4 µg/mL (≈ 3.27 µM) | IC90 [3]: 9.39 µg/mL (≈ 12.8 µM) | IC50 (MG63 (osteosarcoma)): 0.8 µg/mL (≈ 1.09 µM) | IC90 (MG63 (osteosarcoma)): 1.9 µg/mL (≈ 2.59 µM) | IC50 [4]: 1.75 µg/mL (≈ 2.38 µM) | IC90 [4]: 10.5 µg/mL (≈ 14.2 µM) | IC50 [5]: 0.22 µg/mL (≈ 0.299 µM) | IC90 [5]: 1.71 µg/mL (≈ 2.33 µM) | IC50 [6]: 0.5 µg/mL (≈ 0.68 µM) | IC90 [6]: 1.4 µg/mL (≈ 1.9 µM) | IC50 [7]: 0.5 µg/mL (≈ 0.68 µM) | IC90 [7]: 4.5 µg/mL (≈ 6.12 µM) | IC50 [8]: 0.33 µg/mL (≈ 0.449 µM) | IC90 [8]: 2.4 µg/mL (≈ 3.27 µM) | IC50 [9]: 0.41 µg/mL (≈ 0.558 µM) | IC90 [9]: 2.28 µg/mL (≈ 3.1 µM) | IC50 [10]: 1.2 µg/mL (≈ 1.63 µM) | IC90 [10]: 6 µg/mL (≈ 8.16 µM) | IC50 [11]: 0.64 µg/mL (≈ 0.871 µM) | IC90 [11]: 3.55 µg/mL (≈ 4.83 µM) | IC50 (A549 (human lung cancer)): 1.7 µg/mL (≈ 2.31 µM) | IC90 (A549 (human lung cancer)): 9.2 µg/mL (≈ 12.5 µM) | IC50 [12]: 0.12 µg/mL (≈ 0.163 µM) | IC90 [12]: 1.02 µg/mL (≈ 1.39 µM) | IC50 [13]: 0.8 µg/mL (≈ 1.09 µM) | IC90 [13]: 5.17 µg/mL (≈ 7.03 µM) | IC50 [14]: 1.62 µg/mL (≈ 2.2 µM) | IC90 [14]: 3.22 µg/mL (≈ 4.38 µM) | IC50 [15]: 0.33 µg/mL (≈ 0.449 µM) | IC90 [15]: 1.55 µg/mL (≈ 2.11 µM) | IC50 [16]: 0.93 µg/mL (≈ 1.27 µM) | IC90 [16]: 2.4 µg/mL (≈ 3.27 µM) | IC50 [17]: 1.2 µg/mL (≈ 1.63 µM) | IC90 [17]: 3.7 µg/mL (≈ 5.03 µM)
Structure (SMILES): COc1ccc2cc1Oc1ccc(cc1)C[C@H]1c3cc(c(OC)cc3CCN1C)Oc1c(OC)c(OC)c(CN3CCN(C)CC3)c3c1[C@H](C2)N(C)CC3 [BS-TE-360]
anti-H9 activity increase over tetrandrine ([5]; compared with tetrandrine): ~12 fold | anti-Jurkat activity increase over tetrandrine ([7]; compared with tetrandrine): ~4 fold | anti-RKO activity increase over tetrandrine ([12]; compared with tetrandrine): 22 fold

IC50 [1]: 0.06 µg/mL (≈ 0.0867 µM) | IC90 [1]: 2.95 µg/mL (≈ 4.26 µM) | IC50 (PC-3 (prostate cancer)): 3.02 µg/mL (≈ 4.36 µM) | IC90 (PC-3 (prostate cancer)): 4.68 µg/mL (≈ 6.76 µM) | IC50 [2]: 2.79 µg/mL (≈ 4.03 µM) | IC90 [2]: 7.35 µg/mL (≈ 10.6 µM) | IC50 [3]: 3.5 µg/mL (≈ 5.06 µM) | IC90 [3]: 12.5 µg/mL (≈ 18 µM) | IC50 (MG63 (osteosarcoma)): 2 µg/mL (≈ 2.89 µM) | IC90 (MG63 (osteosarcoma)): 3.8 µg/mL (≈ 5.49 µM) | IC50 [4]: 2.93 µg/mL (≈ 4.23 µM) | IC90 [4]: 22.3 µg/mL (≈ 32.2 µM) | IC50 [5]: 1.02 µg/mL (≈ 1.47 µM) | IC90 [5]: 2.12 µg/mL (≈ 3.06 µM) | IC50 [6]: 0.8 µg/mL (≈ 1.16 µM) | IC90 [6]: 2 µg/mL (≈ 2.89 µM) | IC50 [7]: 1.09 µg/mL (≈ 1.58 µM) | IC90 [7]: 6.61 µg/mL (≈ 9.55 µM) | IC50 [8]: 0.49 µg/mL (≈ 0.708 µM) | IC90 [8]: 2.81 µg/mL (≈ 4.06 µM) | IC50 [9]: 1.67 µg/mL (≈ 2.41 µM) | IC90 [9]: 5.53 µg/mL (≈ 7.99 µM) | IC50 [10]: 1.97 µg/mL (≈ 2.85 µM) | IC90 [10]: 3.83 µg/mL (≈ 5.54 µM) | IC50 [11]: 3.7 µg/mL (≈ 5.35 µM) | IC90 [11]: 6.2 µg/mL (≈ 8.96 µM) | IC50 (A549 (human lung cancer)): 5.1 µg/mL (≈ 7.37 µM) | IC90 (A549 (human lung cancer)): > 16 µg/mL | IC50 [12]: 1.22 µg/mL (≈ 1.76 µM) | IC90 [12]: 2.94 µg/mL (≈ 4.25 µM) | IC50 [13]: 1.74 µg/mL (≈ 2.51 µM) | IC90 [13]: 7.1 µg/mL (≈ 10.3 µM) | IC50 [14]: 3.77 µg/mL (≈ 5.45 µM) | IC90 [14]: 24.3 µg/mL (≈ 35.1 µM) | IC50 [15]: 0.69 µg/mL (≈ 0.997 µM) | IC90 [15]: 3.05 µg/mL (≈ 4.41 µM) | IC50 [16]: 1.27 µg/mL (≈ 1.84 µM) | IC90 [16]: 2.4 µg/mL (≈ 3.47 µM) | IC50 [17]: 2.3 µg/mL (≈ 3.32 µM) | IC90 [17]: 5.6 µg/mL (≈ 8.09 µM)
Structure (SMILES): COc1ccc2cc1Oc1ccc(cc1)C[C@H]1c3cc(c(OC)cc3CCN1C)Oc1c(OC)c(OC)c(CNC3CC3)c3c1[C@H](C2)N(C)CC3 [BS-TE-301]

IC50 [1]: 0.11 µg/mL (≈ 0.147 µM) | IC90 [1]: 2.43 µg/mL (≈ 3.24 µM) | IC50 (PC-3 (prostate cancer)): 3.4 µg/mL (≈ 4.54 µM) | IC90 (PC-3 (prostate cancer)): 5 µg/mL (≈ 6.68 µM) | IC50 [2]: 1.62 µg/mL (≈ 2.16 µM) | IC90 [2]: 4.58 µg/mL (≈ 6.12 µM) | IC50 [3]: 3.37 µg/mL (≈ 4.5 µM) | IC90 [3]: 7.54 µg/mL (≈ 10.1 µM) | IC50 (MG63 (osteosarcoma)): 0.49 µg/mL (≈ 0.654 µM) | IC90 (MG63 (osteosarcoma)): 0.62 µg/mL (≈ 0.828 µM) | IC50 [4]: 1 µg/mL (≈ 1.34 µM) | IC90 [4]: 9.26 µg/mL (≈ 12.4 µM) | IC50 [5]: 1.54 µg/mL (≈ 2.06 µM) | IC90 [5]: 2.21 µg/mL (≈ 2.95 µM) | IC50 [6]: 0.63 µg/mL (≈ 0.841 µM) | IC90 [6]: 2.17 µg/mL (≈ 2.9 µM) | IC50 [7]: 1.41 µg/mL (≈ 1.88 µM) | IC90 [7]: 5.41 µg/mL (≈ 7.22 µM) | IC50 [8]: 0.79 µg/mL (≈ 1.05 µM) | IC90 [8]: 2.4 µg/mL (≈ 3.2 µM) | IC50 [9]: 1.24 µg/mL (≈ 1.66 µM) | IC90 [9]: 3.2 µg/mL (≈ 4.27 µM) | IC50 [10]: 1.55 µg/mL (≈ 2.07 µM) | IC90 [10]: 5 µg/mL (≈ 6.68 µM) | IC50 [11]: 0.94 µg/mL (≈ 1.26 µM) | IC90 [11]: 2.59 µg/mL (≈ 3.46 µM) | IC50 (A549 (human lung cancer)): 3.5 µg/mL (≈ 4.67 µM) | IC90 (A549 (human lung cancer)): 10.5 µg/mL (≈ 14 µM) | IC50 [12]: 0.51 µg/mL (≈ 0.681 µM) | IC90 [12]: 0.91 µg/mL (≈ 1.22 µM) | IC50 [13]: 1.26 µg/mL (≈ 1.68 µM) | IC90 [13]: 1.88 µg/mL (≈ 2.51 µM) | IC50 [14]: 2.19 µg/mL (≈ 2.92 µM) | IC90 [14]: 4 µg/mL (≈ 5.34 µM) | IC50 [15]: 1.11 µg/mL (≈ 1.48 µM) | IC90 [15]: 2.02 µg/mL (≈ 2.7 µM) | IC50 [16]: 1.3 µg/mL (≈ 1.74 µM) | IC90 [16]: 1.67 µg/mL (≈ 2.23 µM) | IC50 [17]: 1.63 µg/mL (≈ 2.18 µM) | IC90 [17]: 3 µg/mL (≈ 4.01 µM)
Structure (SMILES): COc1ccc2cc1Oc1ccc(cc1)C[C@H]1c3cc(c(OC)cc3CCN1C)Oc1c(OC)c(OC)c(CN3CCCN(C)CC3)c3c1[C@H](C2)N(C)CC3 [BS-TE-356]
